IC50 data for 13 compounds are collected here from patent US8586550B2, “Thiazole derivatives as SGLT2 inhibitors and pharmaceutical composition comprising same” (Green Cross Corporation, priority 2010, dated 2013).

Structures are written as SMILES.

In the assay the target is T1, Human SGLT2 (hSGLT2) (Homo sapiens, UniProt P31639).
T1 construct: expressed in transfected cells
T1 sequence (P31639 1-672): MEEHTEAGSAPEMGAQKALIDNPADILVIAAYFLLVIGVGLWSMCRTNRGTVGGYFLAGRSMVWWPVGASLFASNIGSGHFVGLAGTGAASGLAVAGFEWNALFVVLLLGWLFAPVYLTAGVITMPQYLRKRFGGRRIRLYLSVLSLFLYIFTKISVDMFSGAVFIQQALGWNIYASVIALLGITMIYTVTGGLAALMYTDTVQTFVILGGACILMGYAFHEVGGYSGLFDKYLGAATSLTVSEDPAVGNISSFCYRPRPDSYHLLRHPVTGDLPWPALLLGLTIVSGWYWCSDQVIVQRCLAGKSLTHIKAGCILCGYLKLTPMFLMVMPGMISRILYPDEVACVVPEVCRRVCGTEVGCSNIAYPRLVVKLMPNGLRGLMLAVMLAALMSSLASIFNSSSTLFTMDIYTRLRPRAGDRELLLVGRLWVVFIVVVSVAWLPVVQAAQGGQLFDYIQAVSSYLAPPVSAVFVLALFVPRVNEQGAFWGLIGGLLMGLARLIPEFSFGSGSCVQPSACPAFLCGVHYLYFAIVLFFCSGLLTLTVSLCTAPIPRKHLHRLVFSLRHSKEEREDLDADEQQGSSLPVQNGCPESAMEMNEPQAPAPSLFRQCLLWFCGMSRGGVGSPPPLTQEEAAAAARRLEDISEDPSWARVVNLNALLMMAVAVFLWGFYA
Description: Sodium-dependent glucose transport (14C-AMG uptake) assay in CHO cells stably expressing hSGLT2. The conditions noted are these: CHO cells expressing hSGLT2, 14C-AMG uptake, 37° C. for 2 h; single determinations; read-out: hSGLT2 Inhibitory Activity IC50. Format: cell-based. In a few lines: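 CHO cells stably expressing human SGLT2, preincubated 10 min at 37 °C in sodium-free choline buffer, then 2 h at 37 °C in Na+ buffer with 1 mM AMG plus 8 μM 14C-AMG and inhibitor. Washed cells counted by scintillation; IC50 by nonlinear regression.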
With `C[C@H]1O[C@@H](c2ccc(Cl)c(Cc3ncc(-c4ccco4)s3)c2)[C@H](O)[C@@H](O)[C@@H]1O` [Example 146, (2S,3R,4S,5S,6R)-2-(4-Chloro-3-((5-(furan-2-yl)thiazol-2-yl)methyl)phenyl)-6-methyl-tetrahydro-2H-pyran-3,4,5-triol], the IC50 (in general, the concentration that gives 50% inhibition) was found to be 7.01 nM.
Next, `OCCOC[C@H]1O[C@@H](c2ccc(Cl)c(Cc3ncc(-c4ccco4)s3)c2)[C@H](O)[C@@H](O)[C@@H]1O` [Example 141, (2S,3R,4R,5S,6R)-2-(4-Chloro-3-((5-(furan-2-yl)thiazol-2-yl)methyl)phenyl)-6-((2-hydroxyethoxy)methyl)tetrahydro-2H-pyran-3,4,5-triol]: 30.9 nM; `OC[C@H]1O[C@@H](c2ccc(F)c(Cc3ncc(-c4ccccc4)s3)c2)[C@H](O)[C@@H](O)[C@@H]1O` [Example 44, (2S,3R,4R,5S,6R)-2-(4-Fluoro-3-((5-phenylthiazol-2-yl)methyl)phenyl)-6-(hydroxymethyl)tetralrydro-2H-pyran-3,4,5-triol]: 30.8 nM.
The value for `OC[C@H]1O[C@@H](c2ccc(Cl)c(Cc3ncc(-c4ccco4)s3)c2)[C@H](O)[C@@H](O)[C@@H]1O` [Example 5, (2S,3R,4R,5S,6R)-2-(4-Chloro-3-((5-(furan-2-yl)thiazol-2-yl)methyl)phenyl)-6-(hydroxymethyl)-tetrahydro-2H-pyran-3,4,5-triol] was 1.75 nM.
The value for `C=CCOC(=O)OC[C@H]1O[C@@H](c2ccc(Cl)c(Cc3ncc(-c4ccco4)s3)c2)[C@H](O)[C@@H](O)[C@@H]1O` [Example 163, Allyl ((2R,3S,4R,5R,6S)-6-(4-chloro-3-((5-(furan-2-yl)thiazol-2-yl)methyl)phenyl)-3,4,5-trihydroxytetrahydro-2H-pyran-2-yl)methyl carbonate] was 11.4 nM; that for `OC[C@H]1O[C@@H](c2ccc(Cl)c(Cc3ncc(-c4nccs4)s3)c2)[C@H](O)[C@@H](O)[C@@H]1O` [Example 9, (2S,3R,4R,5S,6R)-2-(3-(2,5′-Bithiazol-2′-ylmethyl)-4-chlorophenyl)-6-(hydroxymethyl)-tetrahydro-2H-pyran-3,4,5-triol] was 7.48 nM.
`CCCCCCCc1cnc(Cc2cc([C@@H]3O[C@H](CO)[C@@H](O)[C@H](O)[C@H]3O)c3ccccc3c2O)s1` [Example 127, (2S,3R,4R,5S,6R)-2-(3-((5-Heptylthiazol-2-yl)methyl)-4-hydroxynaphthalen-1-yl)-6-(hydroxymethyl)-tetrahydro-2H-pyran-3,4,5-triol]: the IC50 was determined as 32.8 nM.
The value for `C=CCOc1cc(Cl)c(Cc2ncc(-c3ccc(F)cc3)s2)cc1[C@@H]1O[C@H](CO)[C@@H](O)[C@H](O)[C@H]1O` [Example 88, (2S,3R,4R,5S,6R)-2-(2-(Allyloxy)-4-chloro-5-((5-(4-fluorophenyl)thiazol-2-yl)methyl)phenyl)-6-(hydroxymethyl)tetrahydro-2H-pyran-3,4,5-triol] was 4.22 nM; that for `OC[C@H]1O[C@@H](c2ccc(Cl)c(Cc3cnc(-c4ccno4)s3)c2)[C@H](O)[C@@H](O)[C@@H]1O` [Example 192, (2S,3R,4R,5S,6R)-2-(4-Chloro-3-((2-(isoxazol-5-yl)thiazol-5-yl)methyl)phenyl)-6-(hydroxymethyl)tetrahydro-2H-pyran-3,4,5-triol] was 20.2 nM; that for `C=CCOc1cc(Cl)c(Cc2ncc(-c3cccs3)s2)cc1[C@@H]1O[C@H](CO)[C@@H](O)[C@H](O)[C@H]1O` [Example 85, (2S,3R,4R,5S,6R)-2-(2-(Allyloxy)-4-chloro-5-((5-(thiophen-2-yl)thiazol-2-yl)methyl)phenyl)-6-(hydroxymethyl)tetrahydro-2H-pyran-3,4,5-triol] was 1.69 nM.
The value for `CCCCCc1cnc(Cc2cc([C@@H]3O[C@H](CO)[C@@H](O)[C@H](O)[C@H]3O)ccc2Cl)s1` [Example 14, (2S,3R,4R,5S,6R)-2-(4-Chloro-3-((5-pentylthiazol-2-yl)methyl)phenyl)-6-(hydroxymethyl)-tetrahydro-2H-pyran-3,4,5-triol] was 13.3 nM; that for `Cc1ccc([C@@H]2O[C@H](CO)[C@@H](O)[C@H](O)[C@H]2O)cc1Cc1ncc(-c2nccs2)s1` [Example 34, (2S,3R,4R,5S,6R)-2-(3-(2,5′-Bithiazol-2′-ylmethyl)-4-methylphenyl)-6-(hydroxymethyl)tetrahydro-2H-pyran-3,4,5-triol] was 5.69 nM.
The value for `OC[C@H]1O[C@@H](c2ccc(Cl)c(Cc3cnc(-c4cccs4)s3)c2)[C@H](O)[C@@H](O)[C@@H]1O` [Example 187, (2S,3R,4R,5S,6R)-2-(4-Chloro-3-((2-(thiophen-2-yl)thiazol-5-yl)methyl)phenyl)-6-(hydroxymethyl)tetrahydro-2H-pyran-3,4,5-triol] was 2.79 nM.
